Test results from the NIST ThermoML archive (doi:10.1021/je100581m).

Test: xn = mol fraction of the nth substance listed
Conditions: Liquid, Vibrating tube method

C=CC(C)(O)CCC=C(C)C (stereo not given) [3,7-dimethyl-1,6-octadien-3-ol] + CC(C)O
mass density [kg/m3]
Conditions | x2 = 0 | x2 = 0.1031 | x2 = 0.2049 | x2 = 0.3054 | x2 = 0.4056 | x2 = 0.5022 | x2 = 0.605 | x2 = 0.7008 | x2 = 0.7981 | x2 = 0.9092
283.15 K, 100 kPa | 869.5 | 866.3 | 862.7 | – | 854.1 | 848.8 | 842.3 | 834.6 | – | 809.3
283.15 K, 5000 kPa | 872.6 | 869.5 | – | 861.9 | 857.4 | 852.2 | 845.7 | – | 828.2 | 813.1
283.15 K, 10000 kPa | 875.7 | – | 869 | 864.9 | 860.5 | 855.3 | – | 841.4 | 831.6 | 816.6
283.15 K, 15000 kPa | – | 875.5 | 872.1 | 868.1 | 863.7 | – | 852.2 | 844.9 | 835.1 | 820.4
283.15 K, 20000 kPa | 881.5 | 878.5 | 875 | 870.9 | – | 861.6 | 855.3 | 848 | 838.4 | –
283.18 K, 100 kPa | – | – | – | 858.7 | – | – | – | – | 824.5 | –
283.18 K, 5000 kPa | – | – | 865.9 | – | – | – | – | 838.1 | – | –
283.18 K, 10000 kPa | – | 872.5 | – | – | – | – | 848.9 | – | – | –
283.18 K, 15000 kPa | 878.7 | – | – | – | – | 858.6 | – | – | – | –
283.18 K, 20000 kPa | – | – | – | – | 866.7 | – | – | – | – | 823.7
298.15 K, 100 kPa | 857.3 | 854.1 | 850.5 | 846.3 | 841.7 | 836.4 | 829.7 | 821.9 | 812 | 796.8
298.15 K, 5000 kPa | 860.6 | 857.4 | 853.9 | 849.8 | 845.2 | 839.9 | 833.3 | 825.6 | 815.9 | 800.9
298.15 K, 10000 kPa | 863.9 | 860.8 | 857.3 | 853.2 | 848.7 | 843.5 | 837 | 829.4 | 819.7 | 804.9
298.15 K, 15000 kPa | 867 | 864 | 860.5 | 856.5 | 852 | 846.9 | 840.4 | 832.9 | 823.4 | 808.8
298.15 K, 20000 kPa | 870 | 867 | 863.6 | 859.6 | 855.2 | 850.1 | 843.7 | 836.4 | 826.9 | 812.4
313.15 K, 100 kPa | 844.5 | 841.4 | 837.7 | 833.4 | 828.7 | 823.2 | 816.4 | 808.5 | 798.6 | 783.6
313.15 K, 5000 kPa | 848.2 | 845.1 | 841.5 | 837.3 | 832.6 | 827.2 | 820.6 | 812.8 | 803 | 788.2
313.15 K, 10000 kPa | 851.6 | 848.6 | 845.1 | 840.9 | 836.3 | 831 | 824.4 | 816.8 | 807.1 | 792.5
313.15 K, 15000 kPa | 855 | 852.1 | 848.6 | 844.5 | 840 | 834.8 | 828.2 | 820.6 | 811.1 | 796.7
313.15 K, 20000 kPa | 858.4 | 855.4 | 852 | 847.9 | 843.5 | 838.3 | 831.8 | 824.4 | 814.9 | 800.7
328.15 K, 100 kPa | 831.7 | 828.5 | – | 820.4 | 815.5 | 809.9 | 802.8 | – | 784.8 | 769.8
328.15 K, 5000 kPa | 835.6 | – | 828.8 | 824.5 | 819.7 | 814.2 | – | 799.4 | 789.5 | 774.8
328.15 K, 10000 kPa | – | 836.4 | 832.8 | 828.6 | 823.9 | – | 811.6 | 803.9 | 794.2 | 779.7
328.15 K, 15000 kPa | 843.1 | 840.1 | 836.5 | 832.3 | – | 822.3 | 815.6 | 808 | 798.4 | –
328.15 K, 20000 kPa | 846.7 | 843.6 | 840.2 | – | 831.5 | 826.1 | 819.5 | 812 | – | 788.4
328.18 K, 100 kPa | – | – | 824.8 | – | – | – | – | 794.9 | – | –
328.18 K, 5000 kPa | – | 832.5 | – | – | – | – | 807.2 | – | – | –
328.18 K, 10000 kPa | 839.5 | – | – | – | – | 818.4 | – | – | – | –
328.18 K, 15000 kPa | – | – | – | – | 827.8 | – | – | – | – | 784.1
328.18 K, 20000 kPa | – | – | – | 836 | – | – | – | – | 802.6 | –
